Measured values as given in US7612055B2, “Macrocyclic lactams and pharmaceutical use thereof” (Novartis AG, priority 2003, dated 2009).

SMILES: CCCCNC(=O)C(C)CC(O)C1C[C@H](C)CCCCCCNc2cc(cc(OC)n2)C(=O)N1 (stereo partly drawn) [Example 11, N-Butyl-4-hydroxy-4-((9R)-16-methoxy-9-methyl-13-oxo-2,12,17-triaza-bicyclo[12.3.1]octadeca-1(17),14(18),15-trien-11-yl)-2-methyl-butyramide]
- melting point: 178 to 182 °C
